Test results as given in BindingDB's records for PubMed 37866336 (The First Affiliated Hospital of China Medical University).

Tests used:
[1] = biological target: Melatonin receptor type 1A (Homo sapiens, UniProt P48039); test: Binding affinity to human MT1 receptor expressed in CHO cells assessed as inhibition constant by HTRF method
[2] = biological target: T1, Melatonin receptor type 1B (Homo sapiens, UniProt P49286); test: Binding affinity to human MT2 receptor expressed in CHO cells assessed as inhibition constant by HTRF method
T1 sequence (P49286 whole entry): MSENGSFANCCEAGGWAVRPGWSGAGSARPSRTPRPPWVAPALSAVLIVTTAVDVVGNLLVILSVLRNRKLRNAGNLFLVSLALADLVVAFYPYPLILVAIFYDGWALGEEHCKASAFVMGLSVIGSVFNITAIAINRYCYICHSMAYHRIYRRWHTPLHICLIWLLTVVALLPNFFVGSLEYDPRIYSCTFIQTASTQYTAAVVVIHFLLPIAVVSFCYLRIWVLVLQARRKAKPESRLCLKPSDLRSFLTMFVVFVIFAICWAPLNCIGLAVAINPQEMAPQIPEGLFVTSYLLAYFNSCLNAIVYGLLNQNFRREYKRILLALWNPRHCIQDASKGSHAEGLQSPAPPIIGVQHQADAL

Chain of Melatonin receptor type 1A (P48039 whole entry): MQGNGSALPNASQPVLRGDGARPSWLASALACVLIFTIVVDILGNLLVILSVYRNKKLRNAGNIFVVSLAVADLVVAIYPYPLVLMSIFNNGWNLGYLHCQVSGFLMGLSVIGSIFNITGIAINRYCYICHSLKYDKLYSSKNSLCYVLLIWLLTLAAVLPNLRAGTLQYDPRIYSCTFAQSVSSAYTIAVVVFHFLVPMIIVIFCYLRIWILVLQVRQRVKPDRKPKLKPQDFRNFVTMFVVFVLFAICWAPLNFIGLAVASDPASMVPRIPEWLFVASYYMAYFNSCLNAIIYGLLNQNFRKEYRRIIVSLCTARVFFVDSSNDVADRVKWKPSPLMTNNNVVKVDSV

| SMILES | Ki [1] | Ki [2] |
| --- | --- | --- |
| CCCn1c(NC(=O)Cc2coc3cc(OC)ccc23)nc2ccccc21 [Name not given] | 36 nM |  |
| N#CN1CC[C@@H](NC(=O)c2ccc(-c3cnc4nccn4c3)cc2F)C1 [Name not given] |  | 36 nM |
